Source: BindingDB's records for doi:10.1016/j.bioorg.2016.08.011 (Recep Tayyip Erdogan University, 2016)

Target: Alpha-glucosidase MAL12 (Saccharomyces cerevisiae (strain ATCC 204508 / S288c), UniProt P53341)
Test: α-Glucosidase inhibition assay
Settings: pH 6.8
Description: α-Glucosidase inhibition assay was performed spectrophotometrically. α-Glucosidase from Saccharomyces cerevisiae (Sigma-Aldrich) was dissolved in phosphate buffer (pH 6.8, 50 mM). Test compounds were dissolved in DMSO. In 96-well microtiter plates, 20 µL of test sample, 20 µL of enzyme (20 mU/mL) and 135 µL of buffer were added and incubated for 15 min at 37 °C. After incubation, 25 µL of p-nitrophenyl-α-D-glucopyranoside (2 mM, Sigma Aldrich) was added and change in absorbance was monitored for 20 min at 400 nm. Test compound was replaced by DMSO (10% final) as control. […] The assays were done in triplicate.

Sequence of Alpha-glucosidase MAL12 (P53341 whole entry): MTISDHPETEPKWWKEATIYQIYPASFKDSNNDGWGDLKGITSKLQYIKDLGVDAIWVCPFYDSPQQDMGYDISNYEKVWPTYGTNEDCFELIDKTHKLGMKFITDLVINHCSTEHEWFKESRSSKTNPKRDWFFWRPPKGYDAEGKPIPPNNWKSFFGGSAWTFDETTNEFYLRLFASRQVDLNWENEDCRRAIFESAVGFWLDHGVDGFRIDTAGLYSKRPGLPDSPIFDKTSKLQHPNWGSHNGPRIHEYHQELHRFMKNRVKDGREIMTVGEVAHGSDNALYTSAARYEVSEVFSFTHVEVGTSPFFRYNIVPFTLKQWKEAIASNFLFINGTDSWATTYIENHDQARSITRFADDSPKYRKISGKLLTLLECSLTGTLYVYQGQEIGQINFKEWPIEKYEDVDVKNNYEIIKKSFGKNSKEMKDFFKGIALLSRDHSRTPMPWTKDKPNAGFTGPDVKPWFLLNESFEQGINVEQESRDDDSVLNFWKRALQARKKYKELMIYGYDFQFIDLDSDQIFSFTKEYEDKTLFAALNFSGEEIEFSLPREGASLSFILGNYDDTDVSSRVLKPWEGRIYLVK

Structure (SMILES): NNC(=O)Cn1c(Cc2ccc(Cl)cc2Cl)nc2ccc([N+](=O)[O-])cc21 [2-[2-(2,4-Dichlorobenzyl)-6-nitro-1H-benzimidazol-1-yl]acetohydrazide (4b)]
- IC50: 10.5 µM

Structure (SMILES): O=C(Cn1c(Cc2ccc(Cl)cc2Cl)nc2ccccc21)NNC(=S)Nc1ccccc1 [2-{[2-(2,4-Dichlorobenzyl)-1H-benzimidazol-1-yl]acetyl}-N-phenylhydrazinecarbothioamide (6a)]
- IC50: 141 µM

Structure (SMILES): O=C(Cn1c(Cc2ccc(Cl)cc2Cl)nc2ccc([N+](=O)[O-])cc21)NNC(=S)Nc1ccccc1 [2-{[2-(2,4-Dichlorobenzyl)-6-nitro-1H-benzimidazol-1-yl]acetyl}-N-phenyl hydrazinecarbothioamide (6b)]
- IC50: 93 µM

Structure (SMILES): Sc1nnc(Cn2c(Cc3ccc(Cl)cc3Cl)nc3ccccc32)o1 [5-{[2-(2,4-Dichlorobenzyl)-1H-benzimidazol-1-yl]methyl}-1,3,4-oxadiazole-2-thiol (5a)]
- IC50: 254 µM

Structure (SMILES): Clc1ccc(Cc2nc3ccccc3n2Cc2nnc(Nc3ccccc3)s2)c(Cl)c1 [5-{[2-(2,4-Dichlorobenzyl)-1H-benzimidazol-1-yl]methyl}-N-phenyl-1,3,4-thiadiazol-2-amine (8a)]
- IC50: 158 µM

Structure (SMILES): O=[N+]([O-])c1ccc2nc(Cc3ccc(Cl)cc3Cl)n(Cc3nnc(S)o3)c2c1 [5-{[2-(2,4-Dichlorobenzyl)-6-nitro-1H-benzimidazol-1-yl]methyl}-1,3,4-oxadiazole-2-thiol (5b)]
- IC50: 26.9 µM

Structure (SMILES): O=[N+]([O-])c1cccc2nc(Cc3ccc(Cl)cc3Cl)n(Cc3nnc(S)n3-c3ccccc3)c12 [5-{[2-(2,4-Dichlorobenzyl)-7-nitro-1H-benzimidazol-1-yl]methyl}-4-phenyl-4H-1,2,4-triazole-3-thiol (7b)]
- IC50: 40.5 µM
